Tests used:
Plasmodium falciparum = assay: Antiplasmodial activity against Plasmodium falciparum; format: functional, organism-based
Plasmodium vinckei [1] = assay: Antimalarial activity against Plasmodium vinckei infected in perorally dosed mice (Mus musculus); format: functional; details: po
Plasmodium vinckei [2] = assay: Antimalarial activity against Plasmodium vinckei infected in intraperitoneally dosed mice (Mus musculus); format: functional; details: ip

Row | IC50 (Plasmodium falciparum) [nM] | SMILES | ED50 (Plasmodium vinckei [1]) [mg/kg] | ED50 (Plasmodium vinckei [2]) [mg/kg]
1 | 1.1 | COCC/C(SC(C)=O)=C(\C)N(C=O)CCCCCCCCCCCCN(C=O)/C(C)=C(/CCOC)SC(C)=O | – | –
2 | 4.3 | CCC(=O)S/C(CCOC)=C(/C)N(C=O)CCCCCCCCCCCCN(C=O)/C(C)=C(/CCOC)SC(=O)CC | 12 | < 0.1
3 | 1.1 | COCC/C(SC(=O)C(C)C)=C(\C)N(C=O)CCCCCCCCCCCCN(C=O)/C(C)=C(/CCOC)SC(=O)C(C)C | 11 | 0.12
4 | 2 | COCC/C(SC(=O)C1CC1)=C(\C)N(C=O)CCCCCCCCCCCCN(C=O)/C(C)=C(/CCOC)SC(=O)C1CC1 | 16 | –
5 | 6.7 | COCC/C(SC(=O)C(C)(C)C)=C(\C)N(C=O)CCCCCCCCCCCCN(C=O)/C(C)=C(/CCOC)SC(=O)C(C)(C)C | – | –
6 | 3.6 | COCC/C(SC(=O)C1CCC1)=C(\C)N(C=O)CCCCCCCCCCCCN(C=O)/C(C)=C(/CCOC)SC(=O)C1CCC1 | – | –
7 | 8.2 | COCC/C(SC(=O)C1CCCC1)=C(\C)N(C=O)CCCCCCCCCCCCN(C=O)/C(C)=C(/CCOC)SC(=O)C1CCCC1 | 17 | 0.65
8 | 2.8 | COCC/C(SC(=O)C1CCCN1)=C(\C)N(C=O)CCCCCCCCCCCCN(C=O)/C(C)=C(/CCOC)SC(=O)C1CCCN1 (centres undefined) | 17 | –
9 | 10.6 | COCC/C(SC(=O)OC(C)Cl)=C(\C)N(C=O)CCCCCCCCCCCCN(C=O)/C(C)=C(/CCOC)SC(=O)OC(C)Cl (centres undefined) | 13 | 0.11
10 | 310 | COCC/C(SC(=O)N1CCCC1)=C(\C)N(C=O)CCCCCCCCCCCCN(C=O)/C(C)=C(/CCOC)SC(=O)N1CCCC1 | > 90 | > 5
11 | 29.5 | COCC/C(SC(=O)N1CCCC1=O)=C(\C)N(C=O)CCCCCCCCCCCCN(C=O)/C(C)=C(/CCOC)SC(=O)N1CCCC1=O | 12 | 0.9
12 | 1.85 | COCC/C(SC(=O)OC)=C(\C)N(C=O)CCCCCCCCCCCCN(C=O)/C(C)=C(/CCOC)SC(=O)OC | 1.3 | 0.072

The remaining lines, values behind:

Row | SMILES | IC50 (Plasmodium falciparum) [nM] | ED50 (Plasmodium vinckei [1]) [mg/kg] | ED50 (Plasmodium vinckei [2]) [mg/kg]
13 | C/C(=C1\CCOC(=S)S1)N(C=O)CCCCCCCCCCCCN(C=O)/C(C)=C1/CCOC(=S)S1 | 4400 | > 30 | –
14 | COCC/C(SC(=O)CC(C)C)=C(\C)N(C=O)CCCCCCCCCCCCN(C=O)/C(C)=C(/CCOC)SC(=O)CC(C)C | 2.4 | 16 | –
15 | C/C=C/CC(=O)S/C(CCOC)=C(/C)N(C=O)CCCCCCCCCCCCN(C=O)/C(C)=C(/CCOC)SC(=O)C/C=C/C | 3.3 | 16 | –
16 | COCC/C(SC(=O)c1ccccc1)=C(\C)N(C=O)CCCCCCCCCCCCN(C=O)/C(C)=C(/CCOC)SC(=O)c1ccccc1 | 1.7 | 15 | < 0.5
17 | COCC/C(SC(=O)c1ccccc1C)=C(\C)N(C=O)CCCCCCCCCCCCN(C=O)/C(C)=C(/CCOC)SC(=O)c1ccccc1C | 110 | 24 | 0.25
18 | COCC/C(SC(=O)c1ccccc1C(F)(F)F)=C(\C)N(C=O)CCCCCCCCCCCCN(C=O)/C(C)=C(/CCOC)SC(=O)c1ccccc1C(F)(F)F | 2200 | > 90 | > 2.5
19 | COCC/C(SC(=O)COC)=C(\C)N(C=O)CCCCCCCCCCCCN(C=O)/C(C)=C(/CCOC)SC(=O)COC | 2.3 | 80 | 1.9
20 | COCC/C(SC(=O)Cc1ccco1)=C(\C)N(C=O)CCCCCCCCCCCCN(C=O)/C(C)=C(/CCOC)SC(=O)Cc1ccco1 | 1.6 | 14 | –
21 | COCC/C(SC(=O)CCC(=O)OC)=C(\C)N(C=O)CCCCCCCCCCCCN(C=O)/C(C)=C(/CCOC)SC(=O)CCC(=O)OC | 5.9 | 10 | 0.4
22 | COCC/C(SC(=O)CCC(C)=O)=C(\C)N(C=O)CCCCCCCCCCCCN(C=O)/C(C)=C(/CCOC)SC(=O)CCC(C)=O | 1.6 | 3 | 0.15
23 | COCC/C(SC(=O)C(C)(C)OC(C)=O)=C(\C)N(C=O)CCCCCCCCCCCCN(C=O)/C(C)=C(/CCOC)SC(=O)C(C)(C)OC(C)=O | 15.6 | 57 | 60.3
24 | COCC/C(SC(=O)c1ccc(CN2CCOCC2)cc1)=C(\C)N(C=O)CCCCCCCCCCCCN(C=O)/C(C)=C(/CCOC)SC(=O)c1ccc(CN2CCOCC2)cc1 | 1.5 | 90 | 3.4
25 | COCC/C(SC(=O)c1cccnc1)=C(\C)N(C=O)CCCCCCCCCCCCN(C=O)/C(C)=C(/CCOC)SC(=O)c1cccnc1 | 2.1 | < 30 | –
26 | COCCc1sc[n+](CCCCCCCCCCCC[n+]2csc(CCOC)c2C)c1C.[Br-].[Br-] | – | 8.1 | 0.14
27 | CCOC(=O)S/C(CCOC)=C(/C)N(C=O)CCCCCCCCCCCCN(C=O)/C(C)=C(/CCOC)SC(=O)OCC | 2.9 | 6.3 | 0.21
28 | COCC/C(SC(=O)OC(C)C)=C(\C)N(C=O)CCCCCCCCCCCCN(C=O)/C(C)=C(/CCOC)SC(=O)OC(C)C | 6.2 | 6.8 | < 0.1
29 | CCCCOC(=O)S/C(CCOC)=C(/C)N(C=O)CCCCCCCCCCCCN(C=O)/C(C)=C(/CCOC)SC(=O)OCCCC | 5.6 | 16 | –
30 | COCC/C(SC(=O)Oc1ccccc1)=C(\C)N(C=O)CCCCCCCCCCCCN(C=O)/C(C)=C(/CCOC)SC(=O)Oc1ccccc1 | 3.5 | 24 | 0.3
31 | COCC/C(SC(=O)Oc1ccc([N+](=O)[O-])cc1)=C(\C)N(C=O)CCCCCCCCCCCCN(C=O)/C(C)=C(/CCOC)SC(=O)Oc1ccc([N+](=O)[O-])cc1 | 3.1 | > 30 | –
32 | COCC/C(SC(=O)OCCBr)=C(\C)N(C=O)CCCCCCCCCCCCN(C=O)/C(C)=C(/CCOC)SC(=O)OCCBr | 2.7 | 13 | –
33 | COCC/C(SC(=O)OCCF)=C(\C)N(C=O)CCCCCCCCCCCCN(C=O)/C(C)=C(/CCOC)SC(=O)OCCF | 2.2 | 3.8 | 0.1
34 | C/C(=C(\CCOC(=O)C(C)C)SC(=O)C(C)C)N(C=O)CCCCCCCCCCCCN(C=O)/C(C)=C(/CCOC(=O)C(C)C)SC(=O)C(C)C | 7 | 60 | 1.2
35 | COC(=O)CCC(=O)OCC/C(SC(=O)CCC(=O)OC)=C(\C)N(C=O)CCCCCCCCCCCCN(C=O)/C(C)=C(/CCOC(=O)CCC(=O)OC)SC(=O)CCC(=O)OC | 48 | 13 | 0.5
36 | COc1ccc(C(=O)OCC/C(SC(=O)c2ccc(OC)c(OC)c2OC)=C(\C)N(C=O)CCCCCCCCCCCCN(C=O)/C(C)=C(/CCOC(=O)c2ccc(OC)c(OC)c2OC)SC(=O)c2ccc(OC)c(OC)c2OC)c(OC)c1OC | 16.5 | > 60 | 1.8
37 | C/C(=C(\CCOC(=O)c1ccccc1C)SC(=O)c1ccccc1C)N(C=O)CCCCCCCCCCCCN(C=O)/C(C)=C(/CCOC(=O)c1ccccc1C)SC(=O)c1ccccc1C | 3500 | > 180 | > 20
38 | C/C(=C1\CCOC(=O)S1)N(C=O)CCCCCCCCCCCCN(C=O)/C(C)=C1/CCOC(=O)S1 | 2.2 | 5 | 0.25
39 | Cc1c(CCO)sc[n+]1CCCCCCCCCCCC[n+]1csc(CCO)c1C.[Br-].[Br-] [ALBITIAZOLIUM BROMIDE] | – | 13 | 0.2

From ChEMBL document CHEMBL1177764, “Exploration of potential prodrug approach of the bis-thiazolium salts T3 and T4 for orally delivered antimalarials” (Bioorg Med Chem Lett, 2010)
